For orientation: IC50 means the midpoint of a concentration-inhibition curve.

Where a name gives a salt, the structure may show the parent alone. A value given as a limit tells only on which side of the number the result lay.

T1 sequence (Q93009 whole entry): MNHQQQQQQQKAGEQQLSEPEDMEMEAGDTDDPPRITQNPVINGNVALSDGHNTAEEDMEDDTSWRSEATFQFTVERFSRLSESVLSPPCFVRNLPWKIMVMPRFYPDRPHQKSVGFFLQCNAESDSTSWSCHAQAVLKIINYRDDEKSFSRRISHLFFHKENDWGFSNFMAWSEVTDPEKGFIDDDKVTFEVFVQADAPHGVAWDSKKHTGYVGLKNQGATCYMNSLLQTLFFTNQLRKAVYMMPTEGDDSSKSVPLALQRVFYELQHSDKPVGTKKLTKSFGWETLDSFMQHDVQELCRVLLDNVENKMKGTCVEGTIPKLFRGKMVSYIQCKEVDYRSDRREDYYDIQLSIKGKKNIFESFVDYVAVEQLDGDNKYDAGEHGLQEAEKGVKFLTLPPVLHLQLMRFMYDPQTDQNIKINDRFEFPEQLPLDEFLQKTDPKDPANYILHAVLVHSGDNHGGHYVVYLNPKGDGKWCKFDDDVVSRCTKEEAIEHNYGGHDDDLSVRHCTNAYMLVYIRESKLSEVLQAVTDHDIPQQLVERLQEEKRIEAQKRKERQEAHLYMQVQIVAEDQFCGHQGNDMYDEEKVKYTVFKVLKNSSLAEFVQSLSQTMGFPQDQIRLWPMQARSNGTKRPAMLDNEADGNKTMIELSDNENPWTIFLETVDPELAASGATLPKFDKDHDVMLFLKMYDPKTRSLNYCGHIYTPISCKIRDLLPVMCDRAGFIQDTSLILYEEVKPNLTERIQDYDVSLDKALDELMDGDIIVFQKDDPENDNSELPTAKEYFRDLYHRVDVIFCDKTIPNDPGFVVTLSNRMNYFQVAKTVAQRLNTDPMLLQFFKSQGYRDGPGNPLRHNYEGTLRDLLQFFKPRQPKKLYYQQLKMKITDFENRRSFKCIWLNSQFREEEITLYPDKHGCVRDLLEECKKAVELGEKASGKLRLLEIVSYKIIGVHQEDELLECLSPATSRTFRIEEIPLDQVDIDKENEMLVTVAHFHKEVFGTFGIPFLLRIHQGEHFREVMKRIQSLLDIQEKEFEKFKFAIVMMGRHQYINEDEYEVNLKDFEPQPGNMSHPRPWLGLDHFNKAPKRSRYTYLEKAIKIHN

The test addresses T1, USP7, Active human recombinant protein (Homo sapiens, UniProt Q93009).
T1 construct: purchased CP Lot; 20200225001
The experiment in a line: USP7 assay (Ubiquitin-Rhodamine 110 enzymatic assay). The conditions noted are these: read-out: IC50. The format is biochemical. The procedure:
Enzymatic Assays with Exemplary USP7 Irreversible Inhibitors
ND refers to not disclosed.
USP7, Active human recombinant protein (CP, Lot. 20200225001), Ubiquitin-Rhodamine 110 (Rh110) (BostonBiochem, Cat. No. U-555), DMSO (Sigma, Cat. N34869), DTT (Sangon Biotech, Cat. No. A620058-0005), […] Tris pH 8.0 (Sigma, Cat. No. T2694-1L), Tween-20 (Sigma, Cat. No. P2287-100ML), EDTA (Invitrogen, Cat. No. 15575020, BSA (Sigma, Cat. No. B2064-100G), 384-well assay plate (Corning, Cat. No. 3573), Echo Qualified 384-Well Polypropylene Microplate 2.0, Clear, Flat Bottom (LABCYTE, Cat. No. 001-14555).
Dilute the compounds to 400× of the final desired highest inhibitor concentration in reaction by 100% DMSO. For all compounds, transfer the compounds to one well in a 384-well Echo plate and serially dilute the compound by 3-fold dilution of 100% DMSO in the next well and so forth for a total of 10 concentrations by Precision. Add 30 μL of 100% DMSO to two empty wells for no compound control and no enzyme control in the same 384-well Echo plate. Make the plate as a source plate.
For USP7 assay, transfer 50 nL of each well from the source plate to a 384-well assay plate (OptiPlate TM-384 F black assay plates) by Echo 550 Liquid Handler.
Added appropriate amount of USP7 in 1× assay Buffer to prepare 2× enzyme solution (USP7 final concentration: 0.05 nM). Added appropriate amount of Ubiquitin-Rhodamine 110 in 1× assay Buffer to prepare 2× substrate solution (Ubiquitin-Rhodamine 110 final concentration: 190 nM). Added 10 μL of 2× enzyme solution to each reaction well of the 384-well assay plate, except for control wells without enzyme (add 10 μL of 1× Assay Buffer instead as for low control). […] Transferred 2× substrate solution to the assay plate. Added 10 μL of 2× substrate solution to each well of the 384-well assay plate to start reaction. Centrifuged at 1000 rpm for 1 min. Read the plate kinetically on SpectraMax Paradigm for 20 min with excitation at 485 nm and emission at 535 nm. Copied raw data (slope) from Reader to obtain inhibition values in Excel using equation (1): […]
Max signal was obtained from the action of Enzyme and Substrate. Min signal was obtained from the Substrate only. To fit the data in XLFit excel add-in version 5.4.0.8 to obtain IC50 values used equation (2): […]
Y is % inhibition and X is compound concentration.
For `O=C(NCCC1CC[C@@H](C(=O)N2CCC(O)(Cn3cnc4cc(-c5ncc(CN6CCNCC6)o5)ccc4c3=O)CC2)[C@H](c2ccccc2)C1)c1ccc2c(Cl)ccnc2c1` (stereo partly shown), the IC50 lay in the range of 20 to 100 nM. In the case of `COc1cc(Cl)c2ccc(C(=O)NCCCC(Cc3ccccc3)C(=O)N3CCC(O)(Cn4cnc5cc(NC(=O)CCN(C)C)ccc5c4=O)CC3)cc2n1` (stereo not shown) [Compound 66], the IC50 was above 1000 nM. Consider `Cc1cc(Cl)c2ccc(C(=O)NCCC[C@H](Cc3ccccc3)C(=O)N3CCC(O)(Cn4cnc5cc(NC(=O)CCN(C)C)ccc5c4=O)CC3)cc2n1` [Compound 50, (R)—N-(4-benzyl-5-(4-((7-(3-(dimethylamino)propanamido)-4-oxoquinazolin-3(4H)-yl)methyl)-4-hydroxypiperidin-1-yl)-5-oxopentyl)-4-chloro-2-methylquinoline-7-carboxamide], for which the concentration for half-maximal inhibition (IC50) is above 1000 nM.

For the compound `O=C(NCCC[C@H](Cc1ccccc1)C(=O)N1CCC(O)(Cn2cnc3cc(-c4ncc(CN5CCNCC5)o4)ccc3c2=O)CC1)c1ccc2c(Cl)cc(C3CC3)nc2c1` [Compound 135], the IC50 lay within 20 to 100 nM.

In the case of `CN1CCN(CCC(=O)Nc2ccc3c(=O)n(CC4(O)CCN(C(=O)[C@H](CCCNC(=O)c5ccc6c(Cl)cc(-c7cnn(CC(F)(F)F)c7)nc6c5)Cc5ccccc5)CC4)cnc3c2)CC1` [Compound 19], the IC50 was above 1000 nM. With `CN(C)CCC(=O)Nc1ccc2c(=O)n(CC3(O)CCN(C(=O)C(CCCNC(=O)c4ccc5c(Cl)c6c(nc5c4)CNCC6)Cc4ccccc4)CC3)cnc2c1` (stereo not shown) [Compound 88] the figure was above 1000 nM; with `Nc1cccc(-n2ncc3c(=O)n(CC4(O)CCN(C(=O)C(CCCNC(=O)c5ccc6c(Cl)ccnc6c5)Cc5ccccc5)CC4)cnc32)c1` (stereo not shown) [Compound 8, N-(5-(4-((1-(3-aminophenyl)-4-oxo-1H-pyrazolo[3,4-d]pyrimidin-5(4H)-yl)methyl)-4-hydroxypiperidin-1-yl)-4-benzyl-5-oxopentyl)-4-chloroquinoline-7-carboxamide], 20 to 100 nM. On to `CN1CCN(CCC(=O)Nc2ccc3c(=O)n(CC4(O)CCN(C(=O)C(CCCNC(=O)c5ccc6c(Cl)cc(-c7cccc(CN)c7)nc6c5)Cc5ccccc5)CC4)cnc3c2)CC1` (stereo not shown) [Compound 17, 2-(3-(aminomethyl)phenyl)-N-(4-benzyl-5-(4-hydroxy-4-((7-(3-(4-methylpiperazin-1-yl)propanamido)-4-oxoquinazolin-3(4H)-yl)methyl)piperidin-1-yl)-5-oxopentyl)-4-chloroquinoline-7-carboxamide hydrochloride], for which the IC50 was 20 to 100 nM. Under `C=CC(=O)Nc1ccc(C#N)cc1N1CCC(C(=O)N2CCC(O)(Cn3cnc4cc(NC(=O)CCN5CCN(C)CC5)ccc4c3=O)CC2)C(c2ccccc2)C1` (stereo not shown) stands above 1000 nM. With `CN(C)CC(=O)Nc1ccc2c(=O)n(CC3(O)CCN(C(=O)C4CCCC(NC(=O)c5ccc6c(Cl)ccnc6c5)C4)CC3)cnc2c1` (stereo not shown) [Compound 36, 4-chloro-N-(3-(4-((7-(2-(dimethylamino)acetamido)-4-oxoquinazolin-3(4H)-yl)methyl)-4-hydroxypiperidine-1-carbonyl)cyclohexyl)quinoline-7-carboxamide] the figure was above 1000 nM. Under `C=CS(=O)(=O)Nc1ccccc1N1CCC(C(=O)N2CCC(O)(Cn3cnc4cc(NC(=O)CCN5CCN(C)CC5)ccc4c3=O)CC2)CC1` [Compound 92] stands 20 to 100 nM; under `CN(C)CCC(=O)Nc1ccc2c(=O)n(CC3(O)CCN(C(=O)C(CCCNC(=O)c4ccc5c(Cl)nccc5c4)Cc4ccccc4)CC3)cnc2c1` (stereo not shown) [Compound 68], above 1000 nM. With `CN(C)CCC(=O)Nc1ccc2c(=O)n(CC3(O)CCN(C(=O)[C@H]4CCN(CCNC(=O)c5ccc6c(Cl)ccnc6c5)C[C@@H]4c4ccccc4)CC3)cnc2c1` [Compound 74], the IC50 was above 1000 nM. For the compound `CN(C)CCCOc1ccc2c(=O)n(CC3(O)CCN(C(=O)C(Cc4ccccc4)N(C)CCNC(=O)c4ccc5c(Cl)cc(C6CC6)nc5c4)CC3)cnc2c1` (stereo not shown), the IC50 lay in the range of 100 to 1000 nM. Regarding `CN(C)CCCOc1ccc2c(=O)n(CC3(O)CCN(C(=O)C(Cn4ccc(F)n4)N(C)CCNC(=O)c4ccc5c(Cl)cc(C6CC6)nc5c4)CC3)cnc2c1` (stereo not shown), the half-maximal inhibitory concentration (IC50) fell in the range of 100 to 1000 nM.

Turning to `CN1CCN(CCn2ncc3ncn(CC4(O)CCN(C(=O)C(CCCNC(=O)c5ccc6c(Cl)ccnc6c5)Cc5ccccc5)CC4)c(=O)c32)CC1` (stereo not shown) [Compound 28], the IC50 is above 1000 nM.

On to `Cc1cc(Cl)c2ccc(C(=O)NCCC[C@@H](Cc3ccccc3)C(=O)N3CCC(O)(Cn4cnc5cc(NC(=O)CCN(C)C)ccc5c4=O)CC3)cc2n1` [Compound 51, (S)—N-(4-benzyl-5-(4-((7-(3-(dimethylamino)propanamido)-4-oxoquinazolin-3(4H)-yl)methyl)-4-hydroxypiperidin-1-yl)-5-oxopentyl)-4-chloro-2-methylquinoline-7-carboxamide], for which the IC50 fell in the range of 20 to 100 nM.

As to `O=C(NCCC[C@H](Cc1ccccc1)C(=O)N1CCC(O)(Cn2cnc(NCCN3CCCC3)cc2=O)CC1)c1ccc2c(Cl)ccnc2c1` [Compound 12, N-(4-benzyl-5-(4-hydroxy-4-((6-oxo-4-(2-(pyrrolidin-1-yl)ethylamino)pyrimidin-1(6H)-yl)methyl)piperidin-1-yl)-5-oxopentyl)-4-chloroquinoline-7-carboxamide], the IC50 was above 1000 nM. For `O=C(CCN1CCNCC1)Nc1ccc2c(=O)n(CC3(O)CCN(C(=O)[C@@H]4CCN(CCNC(=O)c5ccc6c(Cl)ccnc6c5)C[C@H]4c4ccc(C(F)(F)F)cc4)CC3)cnc2c1` [Compound 101], the IC50 was above 1000 nM. As to `CC1(C)C2C(=O)N(CC3(O)CCN(C(=O)[C@@H]4CCN(CCNC(=O)c5ccc6c(Cl)ccnc6c5)C[C@H]4c4ccccc4)CC3)C(=O)C21` (stereo partly shown) [Compound 99], the IC50 was above 1000 nM. Under `O=C(CCN1CCNCC1)Nc1ccn2c(=O)c(CN3CCN(C(=O)[C@@H]4CCN(CCNC(=O)c5ccc6c(Cl)ccnc6c5)C[C@H]4c4ccccc4)CC3)cnc2c1` [Compound 100] stands above 1000 nM; under `O=C(CCn1cccn1)Nc1ccc2c(=O)n(CC3(O)CCN(C(=O)C(CCCNC(=O)c4ccc5c(Cl)ccnc5c4)Cc4ccccc4)CC3)cnc2c1` (stereo not shown) [Compound 64, N-(5-(4-((7-(3-(JH-pyrazol-1-yl)propanamido)-4-oxoquinazolin-3(4H)-yl)methyl)-4-hydroxypiperidin-1-yl)-4-benzyl-5-oxopentyl)-4-chloroquinoline-7-carboxamide], 100 to 1000 nM; under `CN(C)CCC(=O)Nc1ccc2c(=O)n(CC3(O)CCN(C(=O)[C@H](CCCNC(=O)c4ccc5c(Cl)c6c(nc5c4)CN(C)CC6)Cc4ccccc4)CC3)cnc2c1` [Compound 42], 100 to 1000 nM.

On to `O=C(NCCN1CCC(C(=O)N2CCC(O)(Cn3cnc4cc(OCCN5CCNCC5)ccc4c3=O)CC2)C(c2ccccc2)C1)c1ccc2c(Cl)cc(C3CC3)nc2c1` (stereo not shown) [Compound 107], for which the IC50 lay in the range of 20 to 100 nM. In the case of `CN(C)CC(=O)Nc1ccc2c(=O)n(CC3(O)CCN(C(=O)[C@H]4CC[C@H](NC(=O)c5ccc6c(Cl)ccnc6c5)CC4)CC3)cnc2c1` [Compound 35, 4-chloro-N-((1R,4R)-4-(4-((7-(2-(dimethylamino)acetamido)-4-oxoquinazolin-3(4H)-yl)methyl)-4-hydroxypiperidine-1-carbonyl)cyclohexyl)quinoline-7-carboxamide], the IC50 is above 1000 nM. Under `CN(C)CCC(=O)Nc1ccc2c(=O)n(CC3(O)CCN(C(=O)C(CCCNC(=O)c4ccc5c(Cl)ccnc5c4)Cc4cccnc4)CC3)cnc2c1` (stereo not shown) [Compound 82] stands 100 to 1000 nM; under `CN1CCN(CCC(=O)Nc2ccc3c(=O)n(CC4(O)CCN(C(=O)C(CCCNC(=O)c5ccc6c(Cl)cc(-c7cccc(C(F)(F)F)c7)nc6c5)Cc5ccccc5)CC4)cnc3c2)CC1` (stereo not shown) [Compound 15, N-(4-benzyl-5-(4-hydroxy-4-((7-(3-(4-methylpiperazin-1-yl)propanamido)-4-oxoquinazolin-3(4H)-yl)methyl)piperidin-1-yl)-5-oxopentyl)-4-chloro-2-(3-(trifluoromethyl)phenyl)quinoline-7-carboxamide], 100 to 1000 nM.

As for `Cc1cc(Cl)nc2c(C(=O)NCCCC(Cc3ccccc3)C(=O)N3CCC(O)(Cn4cnc5cc(NC(=O)CCN(C)C)ccc5c4=O)CC3)ccn12` (stereo not shown) [Compound 44, N-(4-benzyl-5-(4-((7-(3-(dimethylamino)propanamido)-4-oxoquinazolin-3(4H)-yl)methyl)-4-hydroxypiperidin-1-yl)-5-oxopentyl)-2-chloro-4-methylpyrrolo[1,2-a]pyrimidine-8-carboxamide], the IC50 is above 1000 nM.

The values are drawn from US20240376076A1, “INHIBITORS TARGETING UBIQUITIN SPECIFIC PROTEASE 7 (USP7)” (Dana-Farber Cancer Institute, Inc., priority 2021, published 2024).
